Values after ≈ are worked out from the molar mass of the structure shown.
Assays:
[1] = system: HepG2; experiment: Antiproliferative activity against human HepG2 cells assessed as inhibition of cell growth after overnight incubation by MTT assay; type: functional, cell-based
[2] = Antioxidant activity assessed as DPPH radical scavenging activity measured for 5 mins by UV absorbance analysis; type: functional
[3] = system: MCF7; experiment: Antiproliferative activity against human MCF7 cells assessed as inhibition of cell growth after overnight incubation by MTT assay; type: functional, cell-based
[4] = system: SW 1116; experiment: Antiproliferative activity against human SW1116 cells assessed as inhibition of cell growth after overnight incubation by MTT assay; type: functional, cell-based
[5] = system: HEK293; experiment: Cytotoxicity against human HEK293 cells assessed as inhibition of cell growth after overnight incubation by MTT assay; type: cell-based
[6] = system: Calf thymus DNA; experiment: Binding affinity to calf thymus DNA assessed as binding constant at 68 uM after 2 mins by UV-vis spectroscopy; type: nucleic-acid assay; settings: Bos taurus
[7] = system: Calf thymus DNA; experiment: Binding affinity to calf thymus DNA assessed as hypochromism by measuring red shift in absorption spectra at 68 uM after 2 mins by UV-vis spectroscopy; type: nucleic-acid assay; settings: Bos taurus
[8] = system: Calf thymus DNA; experiment: Binding affinity to calf thymus DNA assessed as binding constant at 40 uM after 2 mins by UV-vis spectroscopy; type: nucleic-acid assay; settings: Bos taurus
[9] = system: Calf thymus DNA; experiment: Binding affinity to calf thymus DNA assessed as hyperchromism by measuring blue shift in absorption spectra at 40 uM after 2 mins by UV-vis spectroscopy; type: nucleic-acid assay; settings: Bos taurus
[10] = system: Calf thymus DNA; experiment: Binding affinity to calf thymus DNA assessed as hypochromism by measuring red shift in absorption spectra at 40 uM after 2 mins by UV-vis spectroscopy; type: nucleic-acid assay; settings: Bos taurus

## O=C1[C@@H](Oc2ccc(Cl)cc2Cl)[C@@H](c2ccc([N+](=O)[O-])cc2)N1c1ccc(Nc2nc(N3CCOCC3)nc(N3CCOCC3)n2)cc1 (relative stereo)
[1]
  IC50: > 100 µM
[2]
  IC50: 5800 µg/mL (≈ 8.36 mM)
[3]
  IC50: > 100 µM
[4]
  IC50: 35.7 µM
[5]
  IC50: > 100 µM

## CCOc1ccc(N2C(=O)[C@@H](Oc3ccc(Cl)cc3)[C@H]2c2ccc(Oc3nc(N4CCOCC4)nc(N4CCOCC4)n3)cc2)cc1 (relative stereo)
[1]
  IC50: > 100 µM
[2]
  IC50: > 10000 µg/mL
[3]
  IC50: > 100 µM
[4]
  IC50: 1.53 µM
[5]
  IC50: > 100 µM

## COc1cccc2c1C(=O)c1c(O)c3c(c(O)c1C2=O)C[C@@](O)(C(=O)CO)C[C@@H]3O[C@H]1C[C@H](N)[C@H](O)[C@H](C)O1 [DOXORUBICIN]
[1]
  IC50: 7.3 µM
[4]
  IC50: 6.9 µM
[5]
  IC50: 6.1 µM

## O=C1[C@@H](Oc2ccccc2)[C@@H](c2ccc(Oc3nc(N4CCOCC4)nc(N4CCOCC4)n3)cc2)N1c1ccc(Nc2nc(N3CCOCC3)nc(N3CCOCC3)n2)cc1 (relative stereo)
[1]
  IC50: > 100 µM
[2]
  IC50: > 10000 µg/mL
[3]
  IC50: > 100 µM
[4]
  IC50: > 100 µM
[5]
  IC50: > 100 µM

## O=C1[C@@H](Oc2ccc(Cl)cc2)[C@@H](c2ccc(Oc3nc(N4CCOCC4)nc(N4CCOCC4)n3)cc2)N1c1ccc(Nc2nc(N3CCOCC3)nc(N3CCOCC3)n2)cc1
[1]
  IC50: > 100 µM
[2]
  IC50: > 10000 µg/mL
[3]
  IC50: > 100 µM
[4]
  IC50: > 100 µM
[5]
  IC50: > 100 µM

## O=C1N(c2ccc(Nc3nc(N4CCOCC4)nc(N4CCOCC4)n3)cc2)C(c2ccc([N+](=O)[O-])cc2)C12c1ccccc1Oc1ccccc12 (configuration not stated)
[1]
  IC50: > 100 µM
[2]
  IC50: > 10000 µg/mL
[3]
  IC50: > 100 µM
[4]
  IC50: > 100 µM
[5]
  IC50: > 100 µM

## O=C1[C@@H](Oc2ccc(Cl)cc2)[C@@H](c2ccc(Cl)cc2)N1c1ccc(Nc2nc(N3CCOCC3)nc(N3CCOCC3)n2)cc1 (relative stereo)
[1]
  IC50: > 100 µM
[2]
  IC50: > 10000 µg/mL
[3]
  IC50: > 100 µM
[4]
  IC50: > 100 µM
[5]
  IC50: > 100 µM

## O=[N+]([O-])c1cccc(/C=N/c2ccc(Nc3nc(N4CCOCC4)nc(N4CCOCC4)n3)cc2)c1
[1]
  IC50: > 100 µM
[2]
  IC50: 445 µg/mL (≈ 0.907 mM)
[3]
  IC50: > 100 µM
[4]
  IC50: 15.1 µM
[5]
  IC50: > 100 µM

## O=[N+]([O-])c1ccc(/C=N/c2ccc(Nc3nc(N4CCOCC4)nc(N4CCOCC4)n3)cc2)cc1
[1]
  IC50: > 100 µM
[2]
  IC50: 195 µg/mL (≈ 0.398 mM)
[3]
  IC50: > 100 µM
[6]
  Kb: 1.08 ×10⁵ /M
[4]
  IC50: 3.32 µM
[7]
  Activity: -4 nm
[5]
  IC50: > 100 µM

## CN(C)c1ccc(/N=C/c2ccc(Oc3nc(N4CCOCC4)nc(N4CCOCC4)n3)cc2)cc1
[1]
  IC50: > 100 µM
[2]
  IC50: 30 µg/mL (≈ 0.0613 mM)
[3]
  IC50: > 100 µM
[4]
  IC50: 15.6 µM
[5]
  IC50: > 100 µM

## O=C1[C@@H](Oc2ccccc2)[C@@H](c2ccc(Cl)cc2)N1c1ccc(Nc2nc(N3CCOCC3)nc(N3CCOCC3)n2)cc1 (relative stereo)
[1]
  IC50: > 100 µM
[2]
  IC50: 4800 µg/mL (≈ 7.82 mM)
[3]
  IC50: > 100 µM
[4]
  IC50: > 100 µM
[5]
  IC50: > 100 µM

## CCOc1ccc(N2C(=O)[C@@H](Oc3ccccc3)[C@H]2c2ccc(Oc3nc(N4CCOCC4)nc(N4CCOCC4)n3)cc2)cc1 (relative stereo)
[1]
  IC50: > 100 µM
[2]
  IC50: 5900 µg/mL (≈ 9.44 mM)
[3]
  IC50: > 100 µM
[4]
  IC50: > 100 µM
[5]
  IC50: > 100 µM

## COc1ccc(N2C(=O)[C@@H](Oc3ccc(Cl)cc3Cl)[C@H]2c2ccc(Oc3nc(N4CCOCC4)nc(N4CCOCC4)n3)cc2)cc1 (relative stereo)
[1]
  IC50: > 100 µM
[2]
  IC50: 9600 µg/mL (≈ 14.1 mM)
[3]
  IC50: > 100 µM
[4]
  IC50: 2.7 µM
[5]
  IC50: > 100 µM

## O=C1[C@@H](Oc2ccccc2)[C@@H](c2ccc([N+](=O)[O-])cc2)N1c1ccc(Nc2nc(N3CCOCC3)nc(N3CCOCC3)n2)cc1 (relative stereo)
[1]
  IC50: > 100 µM
[2]
  IC50: > 10000 µg/mL
[3]
  IC50: > 100 µM
[4]
  IC50: 17.5 µM
[5]
  IC50: > 100 µM

## COc1ccc(N2C(=O)[C@@H](Oc3ccc(Cl)cc3)[C@H]2c2ccc(Oc3nc(N4CCOCC4)nc(N4CCOCC4)n3)cc2)cc1 (relative stereo)
[1]
  IC50: > 100 µM
[2]
  IC50: 6200 µg/mL (≈ 9.61 mM)
[3]
  IC50: > 100 µM
[4]
  IC50: 30 µM
[5]
  IC50: > 100 µM

## COc1ccc(N2C(=O)C3(c4ccccc4Oc4ccccc43)C2c2ccc(Oc3nc(N4CCOCC4)nc(N4CCOCC4)n3)cc2)cc1 (configuration not stated)
[1]
  IC50: > 100 µM
[2]
  IC50: > 10000 µg/mL
[3]
  IC50: > 100 µM
[4]
  IC50: 38.4 µM
[5]
  IC50: > 100 µM

## Clc1ccc(/C=N/c2ccc(Nc3nc(N4CCOCC4)nc(N4CCOCC4)n3)cc2)cc1
[1]
  IC50: > 100 µM
[2]
  IC50: 275 µg/mL (≈ 0.573 mM)
[3]
  IC50: > 100 µM
[4]
  IC50: 93.4 µM
[5]
  IC50: > 100 µM

## O=C1[C@@H](Oc2ccc(Cl)cc2)[C@@H](c2cccc([N+](=O)[O-])c2)N1c1ccc(Nc2nc(N3CCOCC3)nc(N3CCOCC3)n2)cc1 (relative stereo)
[1]
  IC50: > 100 µM
[2]
  IC50: > 10000 µg/mL
[3]
  IC50: > 100 µM
[4]
  IC50: 100 µM
[5]
  IC50: > 100 µM

## O=C1N(c2ccc(Nc3nc(N4CCOCC4)nc(N4CCOCC4)n3)cc2)C(c2cccc([N+](=O)[O-])c2)C12c1ccccc1Oc1ccccc12 (configuration not stated)
[1]
  IC50: > 100 µM
[2]
  IC50: > 10000 µg/mL
[3]
  IC50: > 100 µM
[4]
  IC50: > 100 µM
[5]
  IC50: > 100 µM

## O=C1N(c2ccc(Nc3nc(N4CCOCC4)nc(N4CCOCC4)n3)cc2)C(c2ccc(Cl)cc2)C12c1ccccc1Oc1ccccc12 (configuration not stated)
[1]
  IC50: > 100 µM
[2]
  IC50: > 10000 µg/mL
[3]
  IC50: > 100 µM
[8]
  Kb: 0.935 ×10⁵ /M
[9]
  Activity: -2 nm
[4]
  IC50: 2.06 µM
[5]
  IC50: > 100 µM

## O=C1[C@@H](Oc2ccccc2)[C@@H](c2cccc([N+](=O)[O-])c2)N1c1ccc(Nc2nc(N3CCOCC3)nc(N3CCOCC3)n2)cc1 (relative stereo)
[1]
  IC50: > 100 µM
[2]
  IC50: > 10000 µg/mL
[3]
  IC50: > 100 µM
[8]
  Kb: 0.943 ×10⁴ /M
[9]
  Activity: -2 nm
[4]
  IC50: 1.98 µM
[5]
  IC50: > 100 µM

## COc1ccc(N2C(=O)[C@@H](Oc3ccccc3)[C@H]2c2ccc(Oc3nc(N4CCOCC4)nc(N4CCOCC4)n3)cc2)cc1
[1]
  IC50: > 100 µM
[2]
  IC50: > 10000 µg/mL
[3]
  IC50: > 100 µM
[4]
  IC50: > 100 µM
[5]
  IC50: > 100 µM

## O=C1[C@@H](Oc2ccc(Cl)cc2Cl)[C@@H](c2ccc(Cl)cc2)N1c1ccc(Nc2nc(N3CCOCC3)nc(N3CCOCC3)n2)cc1 (relative stereo)
[1]
  IC50: > 100 µM
[2]
  IC50: > 10000 µg/mL
[3]
  IC50: > 100 µM
[4]
  IC50: 86.2 µM
[5]
  IC50: > 100 µM

## COc1ccc(/N=C/c2ccc(Oc3nc(N4CCOCC4)nc(N4CCOCC4)n3)cc2)cc1
[1]
  IC50: > 100 µM
[2]
  IC50: 195 µg/mL (≈ 0.409 mM)
[3]
  IC50: > 100 µM
[4]
  IC50: > 100 µM
[5]
  IC50: > 100 µM

## C(=N\c1ccc(Nc2nc(N3CCOCC3)nc(N3CCOCC3)n2)cc1)/c1ccc(Oc2nc(N3CCOCC3)nc(N3CCOCC3)n2)cc1
[1]
  IC50: > 100 µM
[2]
  IC50: > 10000 µg/mL
[3]
  IC50: > 100 µM
[4]
  IC50: > 100 µM
[5]
  IC50: > 100 µM

## O=C1[C@@H](Oc2ccc(Cl)cc2Cl)[C@@H](c2cccc([N+](=O)[O-])c2)N1c1ccc(Nc2nc(N3CCOCC3)nc(N3CCOCC3)n2)cc1 (relative stereo)
[1]
  IC50: > 100 µM
[2]
  IC50: > 10000 µg/mL
[3]
  IC50: > 100 µM
[4]
  IC50: > 100 µM
[5]
  IC50: > 100 µM

## O=C1[C@@H](Oc2ccc(Cl)cc2)[C@@H](c2ccc([N+](=O)[O-])cc2)N1c1ccc(Nc2nc(N3CCOCC3)nc(N3CCOCC3)n2)cc1 (relative stereo)
[1]
  IC50: > 100 µM
[2]
  IC50: > 10000 µg/mL
[3]
  IC50: > 100 µM
[8]
  Kb: 2.6 ×10⁵ /M
[10]
  Activity: -5 nm
[4]
  IC50: 4.88 µM
[5]
  IC50: > 100 µM

## O=C1O[C@H]([C@@H](O)CO)C(O)=C1O [ASCORBIC ACID]
[2]
  IC50: 195 µg/mL (≈ 1.11 mM)

## O=C1[C@@H](Oc2ccc(Cl)cc2Cl)[C@@H](c2ccc(Oc3nc(N4CCOCC4)nc(N4CCOCC4)n3)cc2)N1c1ccc(Nc2nc(N3CCOCC3)nc(N3CCOCC3)n2)cc1 (relative stereo)
[1]
  IC50: > 100 µM
[2]
  IC50: > 10000 µg/mL
[3]
  IC50: > 100 µM
[4]
  IC50: > 100 µM
[5]
  IC50: > 100 µM

## CCOc1ccc(/N=C/c2ccc(Oc3nc(N4CCOCC4)nc(N4CCOCC4)n3)cc2)cc1
[1]
  IC50: > 100 µM
[2]
  IC50: 50 µg/mL (≈ 0.102 mM)
[3]
  IC50: > 100 µM
[4]
  IC50: > 100 µM
[5]
  IC50: > 100 µM

— ChEMBL document CHEMBL4616635, “Investigations of antiproliferative and antioxidant activity of β-lactam morpholino-1,3,5-triazine hybrids” (Bioorg Med Chem, 2020)
